Assay results: US5366982A (priority 1990, dated 1994)
Read-outs that look alike come from different tables or passages of the source. One block for each compound: values may come before it.

Assays:
[1] = tested on: guinea-pig pulmonary parenchyma; experiment: L. Parenchyma: guinea-pig pulmonary parenchyma contraction antagonism induced by LTB4 (Sirois); format: cell-based; settings: Table XIX, guinea-pig pulmonary parenchyma contraction induced by LTB4, read-out: IC50 L. Parenchyma
Protocol: Further, compounds of this invention are shown to be leukotriene B4 antagonists in the technique of guinea-pig pulmonary parenchyma contraction antagonism induced by LTB4 described by P. Sirois et al., Pharmacology, 31, 225-236 (1985). In this technique, products are active at concentrations of between about 1 to about 10,000 nM.

leukotriene B4 receptors = leukotriene B4 receptors (Cavia porcellus, UniProt H0VYV8); experiment: biochemical; format: binding, guinea-pig; settings: Table XIX; guinea-pig spleen membranes, tritium-labelled LTB4; read-out: IC50 Binding (Cheng)
leukotriene B4 receptors, sequence (H0VYV8 1-348): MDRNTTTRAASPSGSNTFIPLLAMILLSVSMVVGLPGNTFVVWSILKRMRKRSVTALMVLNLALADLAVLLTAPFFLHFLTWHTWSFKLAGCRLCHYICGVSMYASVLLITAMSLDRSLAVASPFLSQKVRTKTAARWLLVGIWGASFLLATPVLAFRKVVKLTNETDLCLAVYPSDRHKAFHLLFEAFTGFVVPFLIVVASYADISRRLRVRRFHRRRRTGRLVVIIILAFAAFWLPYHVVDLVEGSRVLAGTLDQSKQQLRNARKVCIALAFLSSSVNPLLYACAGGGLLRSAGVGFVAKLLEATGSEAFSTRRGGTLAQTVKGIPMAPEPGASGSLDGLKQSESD

Compound: CC(C)(CCCCOc1cc(-c2ccccc2)ccn1)C(=O)O [6-[(4-phenyl-2-pyridyl)oxy]-2,2-dimethylhexanoic acid]
- IC50 ([1]; Cavia porcellus): 3000 nM
- IC50 (leukotriene B4 receptors): 40 nM

Compound: CSc1ccc(-c2cc(OCCCCCC(=O)O)nc(-c3ccccc3)c2)cc1 [6-{[4-(4-methylthiophenyl)-6-phenyl-2-pyridyl]oxy}hexanoic acid]
- IC50 ([1]; Cavia porcellus): 3000 nM
- IC50 (leukotriene B4 receptors): 10 nM

Compound: CCC(C)(CCCCOc1cc(-c2ccccc2)cc(-c2ccccc2)n1)C(=O)O (stereo not shown) [2-ethyl-2-methyl-6-[(4,6-diphenyl-2-pyridyl)oxy]hexanoic acid]
- IC50 ([1]; Cavia porcellus): 30 nM
- IC50 (leukotriene B4 receptors): 17 nM

Compound: CC(C)(CCCCOc1cc(-c2ccc(N)cc2)cc(-c2ccccc2)n1)C(=O)O [2,2-dimethyl-6-{[4-(4-aminophenyl)-6-phenyl-2-pyridyl]oxy}hexanoic acid]
- IC50 ([1]; Cavia porcellus): 1 nM
- IC50 (leukotriene B4 receptors): 10 nM

Compound: O=C(O)CCCCCOc1cc(-c2ccc(Cl)cc2)cc(-c2ccccc2)n1 [6-{[4-(4-chlorophenyl)-6-phenyl-2-pyridyl]oxy}hexanoic acid]
- IC50 ([1]; Cavia porcellus): 100 nM
- IC50 (leukotriene B4 receptors): 10 nM

Compound: O=C(O)c1ccc(COc2cc(-c3ccccc3)cc(-c3ccccc3)n2)cc1 [4-[(4,6-diphenyl-2-pyridyl)oxymethyl]benzoic acid]
- IC50 ([1]; Cavia porcellus): 10000 nM
- IC50 (leukotriene B4 receptors): 350 nM

These reach a lower IC50 (leukotriene B4 receptors). Values come first.

- IC50 ([1]; Cavia porcellus): 2.5 nM
- IC50 (leukotriene B4 receptors): 7 nM
Compound: CC(CCCCOc1cc(-c2ccc3c(c2)OCO3)cc(-c2ccccc2)n1)C(=O)O (stereo not shown) [2-methyl-6-{[4-(3,4-methylenedioxyphenyl)-6-phenyl-2-pyridyl]oxy}hexanoic acid]

- IC50 ([1]; Cavia porcellus): 100 nM
- IC50 (leukotriene B4 receptors): 5 nM
Compound: CC(C)(CCCCOc1cc(-c2ccccc2)cc(-c2ccsc2)n1)C(=O)O [2,2-dimethyl-6-{[4-phenyl-6-(3-thienyl)-2-pyridyl]oxy}hexanoic acid]

- IC50 ([1]; Cavia porcellus): 150 nM
- IC50 (leukotriene B4 receptors): 4 nM
Compound: O=C(O)CCCCCOc1cc(-c2ccccc2)cc(-c2cccc(F)c2)n1 [6-{[6-(3-fluorophenyl)-4-phenyl-2-pyridyl]oxy}hexanoic acid]

- IC50 ([1]; Cavia porcellus): 10 nM
- IC50 (leukotriene B4 receptors): 4 nM
Compound: CC(CCCCOc1cc(-c2ccccc2)cc(-c2ccccc2)n1)C(=O)O (stereo not shown) [2-methyl-6-[(4,6-diphenyl-2-pyridyl)oxy]hexanoic acid]

- IC50 [1]: 200 nM
- IC50 (leukotriene B4 receptors): 4 nM
Compound: 6-[(6-cyclopropyl-5-phenyl-2-pyridyl)oxy]-2,2-dimethylhexanoic acid
